Laboratory results as given in PubChem BioAssay (NCI).
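Here, GI50 denotes the concentration required for 50% inhibition of growth. TGI: concentration producing complete growth inhibition.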

Assays:
Assay in all cases: NCI anticancer screen, dose series, 384-well format
786-0 renal = test system: 786-0 renal
A498 renal = test system: A498 renal
A549 NSCLC = test system: A549 NSCLC
ACHN renal = test system: ACHN renal
BT-549 breast = test system: BT-549 breast
CAKI-1 renal = test system: CAKI-1 renal
CCRF-CEM leukemia = test system: CCRF-CEM leukemia
COLO 205 colon = test system: COLO 205 colon
DU-145 prostate = test system: DU-145 prostate
HCC-2998 colon = test system: HCC-2998 colon
HCT-116 colon = test system: HCT-116 colon
HCT-15 colon = test system: HCT-15 colon
HL-60(TB) leukemia = test system: HL-60(TB) leukemia
HOP-62 NSCLC = test system: HOP-62 NSCLC
HOP-92 NSCLC = test system: HOP-92 NSCLC
HT29 colon = test system: HT29 colon
IGROV1 ovarian = test system: IGROV1 ovarian
K-562 leukemia = test system: K-562 leukemia
KM12 colon = test system: KM12 colon
LOX IMVI melanoma = test system: LOX IMVI melanoma
M14 melanoma = test system: M14 melanoma
MALME-3M melanoma = test system: MALME-3M melanoma
MCF7 breast = test system: MCF7 breast
MDA-MB-231 breast = test system: MDA-MB-231 breast
MDA-MB-435 melanoma = test system: MDA-MB-435 melanoma
MDA-MB-468 breast = test system: MDA-MB-468 breast
MOLT-4 leukemia = test system: MOLT-4 leukemia
NCI-H226 lung = test system: NCI-H226 lung
NCI-H23 lung = test system: NCI-H23 lung
NCI-H322M lung = test system: NCI-H322M lung
NCI-H460 NSCLC = test system: NCI-H460 NSCLC
NCI-H522 lung = test system: NCI-H522 lung
NCI/ADR-RES ovarian = test system: NCI/ADR-RES ovarian
OVCAR-3 ovarian = test system: OVCAR-3 ovarian
OVCAR-4 ovarian = test system: OVCAR-4 ovarian
OVCAR-5 ovarian = test system: OVCAR-5 ovarian
OVCAR-8 ovarian = test system: OVCAR-8 ovarian
PC-3 prostate = test system: PC-3 prostate
RPMI-8226 leukemia = test system: RPMI-8226 leukemia
RXF 393 renal = test system: RXF 393 renal
SF-268 CNS = test system: SF-268 CNS
SF-295 CNS = test system: SF-295 CNS
SF-539 CNS = test system: SF-539 CNS
SK-MEL-2 melanoma = test system: SK-MEL-2 melanoma
SK-MEL-28 melanoma = test system: SK-MEL-28 melanoma
SK-MEL-5 melanoma = test system: SK-MEL-5 melanoma
SK-OV-3 ovarian = test system: SK-OV-3 ovarian
SN12C renal = test system: SN12C renal
SNB-19 CNS = test system: SNB-19 CNS
SR leukemia = test system: SR leukemia
SW-620 colon = test system: SW-620 colon
T-47D breast = test system: T-47D breast
TK-10 renal = test system: TK-10 renal
U251 glioblastoma = test system: U251 glioblastoma
UACC-257 melanoma = test system: UACC-257 melanoma
UACC-62 melanoma = test system: UACC-62 melanoma
UO-31 renal = test system: UO-31 renal

## CO[C@@H]1/C=C\C=C(/C)C(=O)NC2=CC(=O)C(NCCN(C)C)=C(C[C@@H](C)C[C@@H](OC)[C@@H](O)[C@H](C)/C=C(\C)[C@H]1OC(N)=O)C2=O
786-0 renal
  GI50: 34.5 nM
  TGI: 174 nM
A498 renal
  GI50: 50.8 nM
  TGI: 12700 nM
A549 NSCLC
  GI50: < 10 nM
  TGI: 673 nM
ACHN renal
  GI50: 128 nM
  TGI: 2540 nM
BT-549 breast
  GI50: < 10 nM
  TGI: < 10 nM
CAKI-1 renal
  GI50: 52.7 nM
  TGI: 12100 nM
CCRF-CEM leukemia
  GI50: 38.1 nM
  TGI: 138 nM
COLO 205 colon
  GI50: < 10 nM
  TGI: < 10 nM
DU-145 prostate
  GI50: < 10 nM
  TGI: 22.4 nM
HCC-2998 colon
  GI50: < 10 nM
  TGI: 28.9 nM
HCT-116 colon
  GI50: 26.9 nM
  TGI: 1340 nM
HCT-15 colon
  GI50: 84.3 nM
  TGI: 1310 nM
HL-60(TB) leukemia
  GI50: 21 nM
  TGI: 37.1 nM
HOP-62 NSCLC
  GI50: 16.8 nM
  TGI: 66.1 nM
HOP-92 NSCLC
  GI50: 36.4 nM
  TGI: 137 nM
HT29 colon
  GI50: < 10 nM
  TGI: 1080 nM
IGROV1 ovarian
  GI50: 22.6 nM
  TGI: 63.1 nM
K-562 leukemia
  GI50: 24.1 nM
  TGI: 85.3 nM
KM12 colon
  GI50: 15.2 nM
  TGI: 86.4 nM
LOX IMVI melanoma
  GI50: 18.6 nM
  TGI: 33.4 nM
M14 melanoma
  GI50: < 10 nM
  TGI: 38 nM
MALME-3M melanoma
  GI50: < 10 nM
  TGI: < 10 nM
MCF7 breast
  GI50: 13.2 nM
  TGI: 147 nM
MDA-MB-231 breast
  GI50: 23.7 nM
  TGI: 68.1 nM
MDA-MB-435 melanoma
  GI50: 29.4 nM
  TGI: 1360 nM
MDA-MB-468 breast
  GI50: 23.8 nM
  TGI: 54.3 nM
MOLT-4 leukemia
  GI50: 16.9 nM
  TGI: 33.7 nM
NCI-H226 lung
  GI50: 22.7 nM
  TGI: 84.5 nM
NCI-H23 lung
  GI50: 24.1 nM
  TGI: 67.8 nM
NCI-H322M lung
  GI50: < 10 nM
  TGI: 3400 nM
NCI-H460 NSCLC
  GI50: < 10 nM
  TGI: < 10 nM
NCI-H522 lung
  GI50: 13 nM
  TGI: 30.5 nM
NCI/ADR-RES ovarian
  GI50: 2180 nM
  TGI: 5060 nM
OVCAR-3 ovarian
  GI50: 23.3 nM
  TGI: 76.3 nM
OVCAR-4 ovarian
  GI50: 17.4 nM
  TGI: 359 nM
OVCAR-5 ovarian
  GI50: 36 nM
  TGI: 173 nM
OVCAR-8 ovarian
  GI50: 21.6 nM
  TGI: 48.3 nM
PC-3 prostate
  GI50: 19.9 nM
  TGI: 53.1 nM
RPMI-8226 leukemia
  GI50: 16.1 nM
  TGI: 35.4 nM
RXF 393 renal
  GI50: < 10 nM
  TGI: 16.9 nM
SF-268 CNS
  GI50: 24.8 nM
  TGI: 2320 nM
SF-295 CNS
  GI50: 27.7 nM
  TGI: 96.9 nM
SF-539 CNS
  GI50: < 10 nM
  TGI: 24.6 nM
SK-MEL-2 melanoma
  GI50: < 10 nM
  TGI: 27.5 nM
SK-MEL-28 melanoma
  GI50: 12.5 nM
  TGI: 9830 nM
SK-MEL-5 melanoma
  GI50: < 10 nM
  TGI: 366 nM
SK-OV-3 ovarian
  GI50: 12.5 nM
  TGI: 90.6 nM
SN12C renal
  GI50: 12 nM
  TGI: 41.6 nM
SNB-19 CNS
  GI50: 18.2 nM
  TGI: 2180 nM
SR leukemia
  GI50: 12.7 nM
  TGI: 27 nM
SW-620 colon
  GI50: < 10 nM
  TGI: 78.1 nM
T-47D breast
  GI50: 102 nM
  TGI: 790 nM
TK-10 renal
  GI50: 77.4 nM
  TGI: 846 nM
U251 glioblastoma
  GI50: < 10 nM
  TGI: 36.2 nM
UACC-257 melanoma
  GI50: 19 nM
  TGI: 99 nM
UACC-62 melanoma
  GI50: < 10 nM
  TGI: 48.4 nM
UO-31 renal
  GI50: 368 nM
  TGI: 11700 nM
